Experimental data: patent publication US12383548B2, “Antibacterial quinolines” (priority 2019, dated 2025)
pIC50: −log10 of the molar value. Values after ≈ are worked out from the molar mass of the structure shown. Counter-ions that a name gives are not always drawn. Like-named read-outs stand apart in the source and are kept apart here.

Experiments:
[1] = test system: susceptible H37Rv M. tuberculosis, strain ATCC 25618; assay: Mycobacterium tuberculosis susceptibility assay REMA (resazurin microtiter assay); assay type: cell-based; design: REMA MIC: unit not given here; conditions: for MIC: Mycobacterium tuberculosis, 144 h, read-out: REMA MIC
HepG2 cell line = assay: in vitro cytotoxicity assay (MTS tetrazolium reduction, cell viability); assay type: cell-based; conditions: Homo sapiens, HepG2, 48 h
Experimental: In an embodiment, the in vitro cytotoxicity assay was carried out as follows. […] The assay was performed in 96 well plates for 48 h at 37° C. and 5% CO2 in incubation medium (low glucose DMEM with Glutamax, 10% FBS, 1% Pen/Strep and DMSO). Cells were exposed to 8 different compound concentrations in successive dilutions (usually, base 2), plus a positive control (a compound in a concentration known to decrease cell viability above 50%) and a negative control (incubation medium). Six replicate wells were assayed for each condition. Compound stock solutions were prepared in DMSO at 20 mM, whenever possible, filter sterilized, aliquoted and stored at −20° C. The maximum compound concentrations tested depend on its solubility in incubation medium, and on the maximum DMSO percentage allowable without loss of cell viability. At the end of the incubation period, tetrazolium reagent was added (CellTiter 96® AQueous Solution from Promega); cells were incubated for another 3 hours in order to promote tetrazolium reduction to formazan by viable cells. The amount of soluble formazan produced was evaluated by 490 nm absorbance reading in a spectrophotometer plate reader.

[2] = Table 1, MTB growth, H37Rv, 6 days at 37° C., Middlebrook 7H9
[3] = Table 2, MTB growth, H37Rv, 6 days at 37° C., Middlebrook 7H9
[4] = Table 1, cytotoxicity, MTS, read-out: IC50

O=C(O)C1CCN(c2ccc3cc(-c4ccc(OC(F)(F)F)cc4)ccc3n2)CC1 [Compound 2, 1-(6-(4-(Trifluoromethoxy)phenyl)quinolin-2-yl)piperidine-4-carboxylic acid]
MIC [1, 2]: < 7.8 µM | MIC [1, 3]: < 7.8 µM

CCOC(=O)C1CCN(c2ccc3cc(-c4ccc(O)cc4)ccc3n2)CC1 [Compound 3, Ethyl 1-(6-(4-hydroxyphenyl)quinolin-2-yl)piperidine-4-carboxylate]
pIC50 (HepG2 cell line; [4]): < 4.00 | MIC [1, 2]: 7.8 to 15.6 µM (≈ 2.94 to 5.87 µg/mL)

CCOC(=O)C1CCN(c2ccc3cc(-c4cnc(OC)nc4)ccc3n2)CC1 [Compound 4, ethyl 1-(6-(2-methoxypyrimidin-5-yl)quinolin-2-yl)piperidine-4-carboxylate]
pIC50 (HepG2 cell line; [4]): < 4.00 | pIC50 (HepG2 cell line; Table 2, cytotoxicity, MTS, read-out: IC50): < 4.00 | MIC [1, 2]: < 7.8 µM | MIC [1, 3]: < 7.8 µM

CCOC(=O)C1CCN(c2ccc3cc(-c4cccc(F)c4)ccc3n2)CC1 [Compound 8, ethyl 1-(6-(3-fluorophenyl)quinolin-2-yl)piperidine-4-carboxylate]
MIC [1, 2]: < 7.8 µM | MIC [1, 3]: < 7.8 µM

CC(C)Oc1ccc(-c2ccc3nc(N4CCC(C(=O)O)CC4)ccc3c2)cc1F [Compound 10, 1-(6-(3-fluoro-4-isopropoxyphenyl)quinolin-2-yl)piperidine-4-carboxylic acid]
MIC [1, 2]: < 7.8 µM | MIC [1, 3]: < 7.8 µM

O=C(O)C1CCN(c2ccc3cc(-c4cccc(F)c4)ccc3n2)CC1 [Compound 11, 1-(6-(3-fluorophenyl)quinolin-2-yl)piperidine-4-carboxylic acid]
MIC [1, 2]: < 7.8 µM | MIC [1, 3]: < 7.8 µM

CCOC(=O)C1CCN(c2ccc3cc(-c4ccc(OC)nc4)ccc3n2)CC1 [Compound 14, ethyl 1-(6-(6-methoxypyridin-3-yl)quinolin-2-yl)piperidine-4-carboxylate]
MIC [1, 2]: < 7.8 µM | MIC [1, 3]: < 7.8 µM

CCOC(=O)C1CCN(c2ccc3cc(-c4ccncc4)ccc3n2)CC1 [Compound 15, ethyl 1-(6-(pyridin-4-yl)quinolin-2-yl)piperidine-4-carboxylate hydrochloride]
pIC50 (HepG2 cell line): < 4.00 | MIC [1]: 7.8 to 15.6 µM

CCOC(=O)C1CCN(c2ccc3cc(-c4ccco4)ccc3n2)CC1 [Compound 16, ethyl 1-(6-(furan-2-yl)quinolin-2-yl)piperidine-4-carboxylate]
pIC50 (HepG2 cell line; [4]): < 4.00 | MIC [1, 2]: 7.8 to 15.6 µM (≈ 2.73 to 5.47 µg/mL)

O=C(O)C1CCN(c2ccc3cc(-c4ccncc4)ccc3n2)CC1 [Compound 18, 1-(6-(pyridin-4-yl)quinolin-2-yl)piperidine-4-carboxylic acid hydrochloride]
MIC [1]: 7.8 to 15.6 µM

CCOC(=O)C1CCN(c2ccc3cc(-c4ccc(OC)cc4Cl)ccc3n2)CC1 [Compound 19, ethyl 1-(6-(2-chloro-4-methoxyphenyl)quinolin-2-yl)piperidine-4-carboxylate]
MIC [1, 2]: < 7.8 µM | MIC [1, 3]: < 7.8 µM

CCOC(=O)C1CCN(c2ccc3cc(-c4ccc(OC)cc4)ccc3n2)CC1 [Compound 20, ethyl 1-(6-(4-methoxyphenyl)quinolin-2-yl)piperidine-4-carboxylate]
pIC50 (HepG2 cell line): < 4.00 | MIC [1]: 7.8 to 15.6 µM (≈ 3.05 to 6.09 µg/mL)

COc1ccc(-c2ccc3nc(N4CCC(C(=O)O)CC4)ccc3c2)cc1 [Compound 21, 1-(6-(4-methoxyphenyl)quinolin-2-yl)piperidine-4-carboxylic acid]
MIC [1, 2]: < 7.8 µM | MIC [1, 3]: < 7.8 µM

COc1cccc(-c2ccc3nc(N4CCC(C(=O)O)CC4)ccc3c2)c1 [Compound 22, 1-(6-(3-methoxyphenyl)quinolin-2-yl)piperidine-4-carboxylic acid]
pIC50 (HepG2 cell line; [4]): < 4.00 | MIC [1, 2]: 7.8 to 15.6 µM (≈ 2.83 to 5.65 µg/mL)

COc1ccc(-c2ccc3nc(N4CCC(C(=O)O)CC4)ccc3c2)c(Cl)c1 [Compound 23, 1-(6-(2-chloro-4-methoxyphenyl)quinolin-2-yl)piperidine-4-carboxylic acid]
MIC [1, 2]: 7.8 to 15.6 µM (≈ 3.1 to 6.19 µg/mL)

CCOC(=O)C1CCN(c2ccc3cc(-c4ccc(OC)cc4C(F)(F)F)ccc3n2)CC1 [Compound 24, ethyl 1-(6-(4-methoxy-2-(trifluoromethyl)phenyl)quinolin-2-yl)piperidine-4-carboxylate hydrochloride]
MIC [1]: < 7.8 µM | REMA MIC [1, 3]: ++++ (<7.8)

CCOC(=O)C1CCN(c2ccc3cc(-c4cccc(OC(F)(F)F)c4)ccc3n2)CC1 [Compound 25, ethyl 1-(6-(3-(trifluoromethoxy)phenyl)quinolin-2-yl)piperidine-4-carboxylate]
MIC [1, 2]: < 7.8 µM | MIC [1, 3]: < 7.8 µM

O=C(O)C1CCN(c2ccc3cc(-c4cccc(OC(F)(F)F)c4)ccc3n2)CC1 [Compound 29, 1-(6-(3-(trifluoromethoxy)phenyl)quinolin-2-yl)piperidine-4-carboxylic acid]
MIC [1, 2]: < 7.8 µM | MIC [1, 3]: < 7.8 µM

CCOC(=O)C1CCN(c2ccc3cc(-c4cccc(OC)c4)ccc3n2)CC1 [Compound 30, ethyl 1-(6-(3-methoxyphenyl)quinolin-2-yl)piperidine-4-carboxylate]
pIC50 (HepG2 cell line; [4]): < 4.00 | MIC [1, 2]: 7.8 to 15.6 µM (≈ 3.05 to 6.09 µg/mL)

CCOC(=O)C1CCN(c2ccc3cc(-c4ccc(F)nc4)ccc3n2)CC1 [Compound 35, ethyl 1-(6-(6-fluoropyridin-3-yl)quinolin-2-yl)piperidine-4-carboxylate]
pIC50 (HepG2 cell line; [4]): < 4.00 | MIC [1, 2]: 7.8 to 15.6 µM (≈ 2.96 to 5.92 µg/mL)

CCOC(=O)C1CCN(c2ccc3cc(-c4ccnc(F)c4)ccc3n2)CC1 [Compound 37, ethyl 1-(6-(2-fluoropyridin-4-yl)quinolin-2-yl)piperidine-4-carboxylate]
pIC50 (HepG2 cell line; [4]): 4.00 to 4.30 | MIC [1, 2]: 7.8 to 15.6 µM (≈ 2.96 to 5.92 µg/mL)

CCOC(=O)C1CCN(c2ccc3cc(-c4ccnc(C)c4)ccc3n2)CC1 [Compound 40, ethyl 1-(6-(2-methylpyridin-4-yl)quinolin-2-yl)piperidine-4-carboxylate]
pIC50 (HepG2 cell line; [4]): 4.30 to 4.70 | MIC [1, 2]: 7.8 to 15.6 µM (≈ 2.93 to 5.86 µg/mL)

CCOC(=O)C1CCN(c2ccc3cc(-c4cc(OC)cc(OC)c4)ccc3n2)CC1 [Compound 41, ethyl 1-(6-(3,5-dimethoxyphenyl)quinolin-2-yl)piperidine-4-carboxylate]
pIC50 (HepG2 cell line; [4]): 4.00 to 4.30 | MIC [1, 2]: 7.8 to 15.6 µM (≈ 3.28 to 6.56 µg/mL)

CCOC(=O)C1CCN(c2ccc3cc(-c4ccc(C)nc4)ccc3n2)CC1 [Compound 50, ethyl 1-(6-(6-methylpyridin-3-yl)quinolin-2-yl)piperidine-4-carboxylate]
MIC [1, 2]: < 7.8 µM | MIC [1, 3]: < 7.8 µM

CCOC(=O)C1CCN(c2ccc3cc(-c4ccccn4)ccc3n2)CC1 [Compound 55, ethyl 1-(6-(pyridin-2-yl)quinolin-2-yl)piperidine-4-carboxylate]
MIC [1, 2]: < 7.8 µM | MIC [1, 3]: < 7.8 µM

CCOC(=O)C1CCN(c2ccc3cc(-c4ccc(OC)c(F)c4)ccc3n2)CC1 [Compound 58, ethyl 1-(6-(3-fluoro-4-methoxyphenyl)quinolin-2-yl)piperidine-4-carboxylate]
MIC [1, 2]: < 7.8 µM | MIC [1, 3]: < 7.8 µM

CCOC(=O)C1CCN(c2ccc3cc(-c4ccc(Cl)c(F)c4)ccc3n2)CC1 [Compound 63, ethyl 1-(6-(4-chloro-3-fluorophenyl)quinolin-2-yl)piperidine-4-carboxylate]
MIC [1, 2]: < 7.8 µM | MIC [1, 3]: < 7.8 µM

CCOC(=O)C1CCN(c2ccc3cc(-c4cccc(Cl)c4)ccc3n2)CC1 [Compound 64, ethyl 1-(6-(3-chlorophenyl)quinolin-2-yl)piperidine-4-carboxylate]
MIC [1, 2]: 7.8 to 15.6 µM (≈ 3.08 to 6.16 µg/mL)

CCOC(=O)C1CCN(c2ccc3cc(-c4ccncc4)ccc3n2)C1 (stereo not shown) [Compound 67, ethyl 1-(6-(pyridin-4-yl)quinolin-2-yl)pyrrolidine-3-carboxylate]
MIC [1, 2]: 7.8 to 15.6 µM (≈ 2.71 to 5.42 µg/mL)

CCOC(=O)C1CCN(c2ccc3cc(-c4cc5ccccc5s4)ccc3n2)CC1 [Compound 68, ethyl 1-(6-(benzo[b]thiophen-2-yl)quinolin-2-yl)piperidine-4-carboxylate]
MIC [1, 2]: 7.8 to 15.6 µM (≈ 3.25 to 6.5 µg/mL)

CCOC(=O)C1CCN(c2ccc3cc(-c4ccccc4C(F)(F)F)ccc3n2)CC1 [Compound 69, ethyl 1-(6-(2-(trifluoromethyl)phenyl)quinolin-2-yl)piperidine-4-carboxylate]
MIC [1, 2]: < 7.8 µM | MIC [1, 3]: < 7.8 µM

CCOC(=O)C1CCN(c2ccc3cc(-c4ccccc4OC(F)(F)F)ccc3n2)CC1 [Compound 70, ethyl 1-(6-(2-(trifluoromethoxy)phenyl)quinolin-2-yl)piperidine-4-carboxylate]
MIC [1, 2]: < 7.8 µM

CCOC(=O)C1CCN(c2ccc3cc(-c4ccc(F)cc4OC)ccc3n2)CC1 [Compound 71, ethyl 1-(6-(4-fluoro-2-methoxyphenyl)quinolin-2-yl)piperidine-4-carboxylate]
MIC [1, 3]: < 7.8 µM

CCOC(=O)C1CCN(c2ccc3cc(-c4ccc(OC)c(C(F)(F)F)c4)ccc3n2)CC1 [Compound 72, ethyl 1-(6-(4-methoxy-3-(trifluoromethyl)phenyl)quinolin-2-yl)piperidine-4-carboxylate]
MIC [1, 2]: 7.8 to 15.6 µM (≈ 3.58 to 7.15 µg/mL)

CCOC(=O)C1CCN(c2ccc3cc(-c4cccc(F)c4)ccc3n2)CC1 [Compound 74, ethyl 1-(6-(3-fluorophenyl)quinolin-2-yl)piperidine-4-carboxylate]
REMA MIC [1, 2]: +++ (7.8-15.6)

CCOC(=O)C1CCN(c2ccc3cc(-c4ccc(F)c(Cl)c4)ccc3n2)CC1 [Compound 75, ethyl 1-(6-(3-chloro-4-fluorophenyl)quinolin-2-yl)piperidine-4-carboxylate]
MIC [1, 2]: 7.8 to 15.6 µM (≈ 3.22 to 6.44 µg/mL)
